# PubChem BioAssay AID2060505 (Molecular Pharmacology Branch, DTP, NCI, 2025)
# System: 633275-114-R-J1-PDC complex spheroids, viability
# Experiment: Anticancer human tumor 633275-114-R-J1-PDC patient-derived endometrial adenocarcinoma cell line growth inhibition [GQUAD]
# Conditions: for IC50: curve of first compound; for viability, T/C: stronger effect = lower value
# Description: DNA G-quadruplex Stabilizer Agents in Combinations in Complex Spheroids
# A high-throughput screen of multi-cell type tumor spheroids was designed to identify active combinations of DNA G-quadruplex stabilizer agents and targeted small molecules. Complex spheroids include a stromal component modeled by human endothelial cells (HUVEC) and fibroblasts modeled by human mesenchymal stem cells (MSCs). The concentration ranges selected for each drug and investigational agent were based upon clinically achievable concentrations if the clinical Cmax of the agent was known.
# Compounds. The drugs and investigational agents: pidnarulex (CX-5461; NSC782164), APTO-253 (NSC789042), BRACO-19 (NSC847499), peposertib (NSC802822), ceralasertib (NSC780249), elimusertib (NSC800525), camonsertib (NSC841442), AZD-1390 (NSC803789), olaparib (NSC753686), talazoparib (NSC767125), ART-558 (NSC835418), sotorasib (NSC818433), MRTX-1133 (NSC836407), SN-38 (NSC673596), topotecan (NSC609699), etoposide (NSC141540), doxorubicin (NSC123127), gemcitabine (NSC613327), 5-fluorouracil (NSC19893), paclitaxel (NSC125973), vemurafenib (NSC761431), panobinostat (NSC761190), R-306465 (JNJ-16241199; NSC773264), adavosertib (NSC754352), TP-3654 (NSC805149), carboplatin (NSC241240), KSQ-4279 (NSC840948), and staurosporine (NSC755774) were obtained from the National Cancer Institute (NCI) Developmental Therapeutics Program Chemical Repository (34). The FDA-approved anticancer drug set is available from the NCI Developmental Therapeutics Program. […] The stock solutions were prepared in dimethyl sulfoxide (DMSO, Sigma-Aldrich, St. Louis, MO, cat. D2650) at 800-fold the tested concentration and stored at -70 degrees C prior to their use. All drugs and investigational agents were tested over a range starting from a high concentration at or near the clinical Cmax and decreasing in half-log increments. If the clinical Cmax for an agent had not been determined, the highest concentration tested was 10 microM.
# 2.3 Cell Culture. All cells were maintained in an incubator at 37 degrees C and 5% CO2 with 95% humidity. The PDC lines were cultured according to standard operating procedures established by the NCI PDMR. All PDCs were thawed and cultured in Matrigel-coated flasks prepared with a working solution of 1X Ham's F-12 nutrient mix, without supplementation (Invitrogen, cat. 11765054), 100 U/mL penicillin-streptomycin (Invitrogen, cat. 15140122), and 2.5% Matrigel (Corning Inc., cat. 354248) for the first three passages. The 857933-349-R-J2-PDC line was cultured in 6C/Colon 1B media, which includes advanced DMEM/F-12 (Thermo Fisher Scientific, cat. 12634028), 10 mM HEPES (Thermo Fisher Scientific, cat. 15630080), 1X GlutaMAX supplement (Thermo Fisher Scientific, cat. 35050061), 0.1 mg/mL primocin (InvivoGen, cat. ant-pm-2), 10% defined fetal bovine serum, heat inactivated (HyClone Laboratories Inc., cat. SH30070.03HI), 50% L-WRN conditioned media (ATCC, cat. CRL-3276), 1.25 mM N-Acetyl-L-cysteine (Sigma-Aldrich, cat. A9165), 10 mM nicotinamide (Sigma-Aldrich, cat. N0636), 1X B-27 supplement (Thermo Fisher Scientific, cat. 17504044), 1X N-2 supplement (Thermo Fisher Scientific, cat. 17502048), 10 microM Y-27632 dihydrochloride (Tocris Bioscience, cat. 1254), and 50 ng/mL human EGF recombinant protein (Thermo Fisher Scientific, cat. PHG0311). The 485176-168-R4-J1-PDC line was cultured in Panc media, which includes all 6C/Colon 1B media components plus 100 ng/mL human FGF-10 (Thermo Fisher Scientific, cat. 100-26), 500 nM SB-431542 (Selleckchem, cat. S1067), and gastrin (Tocris, cat. 3006).
# […]
# 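Also: spheroids exposed to the agents for seven days.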
# 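For viability, T/C in this document: percent of DMSO vehicle control viability which is 100%.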
smiles,measurement,setting,value
COc1cccc2c1C(=O)c1c(O)c3c(c(O)c1C2=O)CC(O)(C(=O)CO)CC3OC1CC(N)C(O)C(C)O1 (configuration not stated) + CN(C)c1ccc(Nc2c3ccc(NC(=O)CCN4CCCC4)cc3nc3cc(NC(=O)CCN4CCCC4)ccc23)cc1,IC50,second compound 0.0316 µM,91.8 nM
same,IC50,second compound 0.1 µM,77.9 nM
same,IC50,second compound 0.316 µM,73.2 nM
same,IC50,second compound 1 µM,65.5 nM
same,IC50,second compound 3.16 µM,47.1 nM
same,IC50,second compound 10 µM,< 31.6 nM
same,"viability, T/C","second compound 0.0316 µM, first compound 0.0316 µM",62.9%
same,"viability, T/C","second compound 0.0316 µM, first compound 0.1 µM",48.1%
same,"viability, T/C","second compound 0.0316 µM, first compound 0.316 µM",32%
same,"viability, T/C","second compound 0.0316 µM, first compound 1 µM",20.6%
same,"viability, T/C","second compound 0.0316 µM, first compound 3.16 µM",1.62%
same,"viability, T/C","second compound 0.0316 µM, first compound 10 µM",2.01%
same,"viability, T/C","second compound 0.1 µM, first compound 0.0316 µM",62.7%
same,"viability, T/C","second compound 0.1 µM, first compound 0.1 µM",45%
same,"viability, T/C","second compound 0.1 µM, first compound 0.316 µM",31%
same,"viability, T/C","second compound 0.1 µM, first compound 1 µM",18.3%
same,"viability, T/C","second compound 0.1 µM, first compound 3.16 µM",1.63%
same,"viability, T/C","second compound 0.1 µM, first compound 10 µM",2.02%
same,"viability, T/C","second compound 0.316 µM, first compound 0.0316 µM",63.6%
same,"viability, T/C","second compound 0.316 µM, first compound 0.1 µM",43.5%
same,"viability, T/C","second compound 0.316 µM, first compound 0.316 µM",30.1%
same,"viability, T/C","second compound 0.316 µM, first compound 1 µM",18.9%
same,"viability, T/C","second compound 0.316 µM, first compound 3.16 µM",2.31%
same,"viability, T/C","second compound 0.316 µM, first compound 10 µM",1.97%
same,"viability, T/C","second compound 1 µM, first compound 0.0316 µM",59.1%
same,"viability, T/C","second compound 1 µM, first compound 0.1 µM",42%
same,"viability, T/C","second compound 1 µM, first compound 0.316 µM",33.6%
same,"viability, T/C","second compound 1 µM, first compound 1 µM",15.2%
same,"viability, T/C","second compound 1 µM, first compound 3.16 µM",3.04%
same,"viability, T/C","second compound 1 µM, first compound 10 µM",1.66%
same,"viability, T/C","second compound 3.16 µM, first compound 0.0316 µM",56.9%
same,"viability, T/C","second compound 3.16 µM, first compound 0.1 µM",35.7%
same,"viability, T/C","second compound 3.16 µM, first compound 0.316 µM",29.4%
same,"viability, T/C","second compound 3.16 µM, first compound 1 µM",16.1%
same,"viability, T/C","second compound 3.16 µM, first compound 3.16 µM",2.59%
same,"viability, T/C","second compound 3.16 µM, first compound 10 µM",1.1%
same,"viability, T/C","second compound 10 µM, first compound 0.0316 µM",25.3%
same,"viability, T/C","second compound 10 µM, first compound 0.1 µM",17.3%
same,"viability, T/C","second compound 10 µM, first compound 0.316 µM",10%
same,"viability, T/C","second compound 10 µM, first compound 1 µM",7.22%
same,"viability, T/C","second compound 10 µM, first compound 3.16 µM",0.49%
same,"viability, T/C","second compound 10 µM, first compound 10 µM",0.61%
